“Also recorded” adds a separate entry of the source.
Key:
isolated mouse RGCs [1] = assay: Immunofluorescent staining of TUBB3 and F-actin in isolated mouse RGCs; assay type: cell-based; details: 1 μM, 4 days
Source text: (§1) In order to assess the effect of xEFN peptide supplementation on Eph-receptor modulation, various in vitro assays were employed on isolated mouse RGCs. […] Similarly, xEFN_RBD1, and 3 inhibited the phosphorylation of Rac1 by pre-clustered ephirnA5 ligand stimulation. […] TUBB3 is a marker specific for neuronal microtubules and functions as a neuronal-specific marker.

EphA2 [2] = molecular target: T1, EphA2 (Mus musculus, UniProt Q03145); assay: Western blot of EphA2 expression in isolated mouse RGCs; assay type: cell-based; details: 1 μM, 4 days
T1 construct: endogenous in cells; host or cells: primary mouse retinal ganglion cells (p8-10 pups)
T1 sequence (Q03145 26-977): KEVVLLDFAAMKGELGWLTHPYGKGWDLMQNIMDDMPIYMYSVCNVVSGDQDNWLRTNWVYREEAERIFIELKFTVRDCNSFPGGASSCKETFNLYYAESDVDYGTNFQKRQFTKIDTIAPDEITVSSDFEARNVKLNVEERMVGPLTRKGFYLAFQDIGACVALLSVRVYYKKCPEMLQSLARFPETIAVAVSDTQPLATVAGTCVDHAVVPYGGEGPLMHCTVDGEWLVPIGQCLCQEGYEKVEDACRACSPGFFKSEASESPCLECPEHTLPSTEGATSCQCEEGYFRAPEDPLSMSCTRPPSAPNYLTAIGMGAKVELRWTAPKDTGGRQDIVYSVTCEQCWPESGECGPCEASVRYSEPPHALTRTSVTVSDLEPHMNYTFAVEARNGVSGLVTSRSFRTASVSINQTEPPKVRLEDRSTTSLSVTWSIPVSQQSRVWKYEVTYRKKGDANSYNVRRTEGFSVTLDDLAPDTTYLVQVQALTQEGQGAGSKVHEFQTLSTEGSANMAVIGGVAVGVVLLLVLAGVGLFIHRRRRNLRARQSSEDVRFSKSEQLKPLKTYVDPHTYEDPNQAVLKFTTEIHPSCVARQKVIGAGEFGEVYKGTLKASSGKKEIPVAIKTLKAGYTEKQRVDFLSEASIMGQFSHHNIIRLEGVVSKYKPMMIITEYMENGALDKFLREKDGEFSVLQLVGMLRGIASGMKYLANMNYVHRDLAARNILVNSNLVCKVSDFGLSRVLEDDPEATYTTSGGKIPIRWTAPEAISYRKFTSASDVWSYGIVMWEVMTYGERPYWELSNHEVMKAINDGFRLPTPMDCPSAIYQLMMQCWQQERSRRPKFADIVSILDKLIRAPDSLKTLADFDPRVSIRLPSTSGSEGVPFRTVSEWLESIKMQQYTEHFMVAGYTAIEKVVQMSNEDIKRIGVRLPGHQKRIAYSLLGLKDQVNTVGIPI
Source text: as §1

Ephexin-1 = assay: Western blot of phosphorylated Ephexin-1 in mRGCs; assay type: cell-based, mouse; details: 500 nM
Description: (§2) On day 4, cells were treated with pre-clustered recombinant mouse EfnA5-His ligand [(+) Control, using anti-His_Tag antibody for 30 minutes] for 2 hours. Cells were then lysed in RIPA buffer containing protease and phosphatase inhibitor cocktails and maintained on ice. Protein was quantified using a BCA assay, and 10 μg of total protein was run on a TGX stain-free Any kD gel (BioRad) and transferred using the trans-blot turbo system (BioRad). Following transfer and blocking in 5% nonfat milk for 1 h, blots were probed with antibodies against RhoA, phosphorylated Rac1, ARHGEF15, Ephexin-1, or beta-actin as an endogenous loading control overnight at 4° C. Blots were then washed 3×5 min in PBS-T and incubated in the appropriate HRP-conjugated secondary antibody for 2 h at room temperature. Blots were imaged using chemiluminescent ECL substrate (Pierce) on a BioRad ChemiDoc MP imaging system and software.

EphB2 = molecular target: T2, EphB2 (Mus musculus, UniProt P54763); assay: Western blot of EphB2 expression in isolated mouse RGCs; assay type: cell-based; details: 1 μM, 4 days
T2 construct: endogenous in cells; host or cells: primary mouse retinal ganglion cells
T2 sequence (P54763 19-986): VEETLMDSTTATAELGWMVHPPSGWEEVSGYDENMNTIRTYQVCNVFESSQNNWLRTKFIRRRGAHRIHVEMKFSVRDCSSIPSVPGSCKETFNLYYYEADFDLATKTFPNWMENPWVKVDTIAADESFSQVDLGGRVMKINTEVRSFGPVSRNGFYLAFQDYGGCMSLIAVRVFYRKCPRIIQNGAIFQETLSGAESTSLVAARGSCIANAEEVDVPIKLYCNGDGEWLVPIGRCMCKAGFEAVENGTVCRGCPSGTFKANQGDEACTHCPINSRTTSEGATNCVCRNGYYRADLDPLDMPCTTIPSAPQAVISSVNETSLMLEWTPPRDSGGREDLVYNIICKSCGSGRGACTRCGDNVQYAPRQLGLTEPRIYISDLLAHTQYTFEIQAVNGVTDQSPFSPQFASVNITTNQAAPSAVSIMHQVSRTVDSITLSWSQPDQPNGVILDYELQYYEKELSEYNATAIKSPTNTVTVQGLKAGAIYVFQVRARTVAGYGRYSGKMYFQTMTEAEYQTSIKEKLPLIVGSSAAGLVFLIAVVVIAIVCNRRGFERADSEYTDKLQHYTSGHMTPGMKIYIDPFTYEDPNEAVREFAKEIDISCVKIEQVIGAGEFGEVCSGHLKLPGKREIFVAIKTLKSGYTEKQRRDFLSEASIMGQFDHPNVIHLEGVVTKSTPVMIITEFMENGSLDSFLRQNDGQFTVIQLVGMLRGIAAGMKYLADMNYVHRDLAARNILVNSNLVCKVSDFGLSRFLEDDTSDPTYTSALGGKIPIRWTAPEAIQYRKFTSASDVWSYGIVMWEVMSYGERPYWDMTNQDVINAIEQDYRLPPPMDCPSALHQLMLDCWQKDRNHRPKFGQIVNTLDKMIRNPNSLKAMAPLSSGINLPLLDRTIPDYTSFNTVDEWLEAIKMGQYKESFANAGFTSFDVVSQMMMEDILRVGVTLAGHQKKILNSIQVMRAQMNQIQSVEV
Source text: as §1

EphA2 [3] = molecular target: T1, EphA2; assay: Immunohistochemistry of TUBB3 and pEphA2 receptor in RGCs; assay type: cell-based; details: 500 nM, 4 days
phosphorylated Rac1 = assay: Western blot of phosphorylated Rac1 in mRGCs; assay type: cell-based, mouse; details: 500 nM
Description: as §2

isolated mouse RGCs [4] = assay: Neurite sprouting and extension assay, short-term (48 h); assay type: cell-based
Description: Mouse retinal ganglion cells (RGC): Mouse R GCs were isolated as follows. Briefly, retinas from postnatal day 8-10 (p8-10) mouse pups were dissected and digested using a papain solution (16.5 U/mL) for 30 minutes at 37° C. Following dissociation, macrophage and endothelial cells were removed from the cell suspension by panning with the anti-macrophage antiserum (Accurate Chemical, Westbury, NY). Finally, RGCs were immunopanned in plates containing the antibody against Thy1.2 and were then released by incubation with trypsin solution. RGCs were grown on poly-L-lysine coated plates in serum-free Neurobasal media (Invitrogen, Carlsbad, CA), supplemented with B-27 supplement, CNTF (10 ng/ml), and BDNF (10 ng/ml).
mRGCs were used to analyze dendrite sprouting, axonal polarization and extension, and ephrin receptor phosphorylation following treatment with xEFN peptides. RGCs were isolated as described above and plated onto 24 well plates at a concentration of 4×10^4 cells/well for short-term (48 h) experiments, or into 96-well plates at a concentration of 1,000 cells/well for long-term (6 days) experiments in an Incucyte Zoom (Essen Biosciences) instrument for live cell imaging. […] For the short-tem experiment, cells were fixed in 4% paraformaldehyde for 5 minutes, permeabilized using 0.05% Triton X-100, blocked with 5% fetal bovine serum, and incubated with primary antibody against Tubulin Beta 3 Class III (TUBB3) overnight at 4° C. Cells were then washed 3×5 min with PBS and incubated with AlexaFluor488 secondary antibody for 2 h at room temperature. Cells were mounted using SlowFade Gold Antifade mounting media with DAPI (ThermoFisher) and imaged using an EVOS FL automated fluorescent microscope (ThermoFisher). Dendrite measurements and analysis was performed by a blinded investigator using ImageJ software and the Sholl analysis plugin. […] Neurite sprouting and extension were quantified using the automated Incucyte Zoom NeuroTrack Processing algorithm for real-time, label-free neurite segmentation and quantitation (FIG. 13).

ARHGEF15 (Ephexin-5) = assay: Western blot of ARHGEF15 in mRGCs; assay type: cell-based, mouse; details: 500 nM
Description: as §2

RhoA = assay: Western blot of RhoA in mRGCs; assay type: cell-based, mouse; details: 500 nM
Description: as §2

[5] = supplemented RGC cultures, 48 h

FTIKFQEFSPNLWGL [xEFN_RBD3]
neuroprotection seen by TUBB3 expression versus control in vitro cultures (isolated mouse RGCs [1]): neuroprotection; also recorded: effectively preserved RGCs
expression of EphA2 (western blot) (EphA2 [2]): reduced expression; also recorded: effectively decreased expression
phosphorylation of Ephexin-1 (Ephexin-1): decrease
expression of EphB2 (western blot) (EphB2): reduced expression; also recorded: effectively decreased expression
dendritic density (immunohistochemistry) (EphA2 [3]): increase dendritic density
phosphorylation of the EphA2 receptor (immunohistochemistry) (EphA2 [3]): reduced phosphorylation
phosphorylation of Rac1 by pre-clustered ephrinA5 ligand stimulation (phosphorylated Rac1): inhibited
average axonal length (isolated mouse RGCs [4]; 500 nM, 48 h of culture, compared to vehicle (PBS) treated controls): 302.16+/−40.24%
axonal extension (isolated mouse RGCs [4]; isolated RGCs): significantly increases
dendritic arbor complexity (isolated mouse RGCs [4]; isolated RGCs): significantly increases
neurite sprouting (isolated mouse RGCs [4]; isolated RGCs): significantly increases
average neurites/RGC soma (isolated mouse RGCs [4]; [5]): 3.43+/−0.16 neurites/RGC
median total neurite length (isolated mouse RGCs [4]; [5]): 1034.68 (range: 486.26-2759.84) μm/cell
ARHGEF15 (Ephexin-5) level (ARHGEF15 (Ephexin-5)): decrease
expression of the GTPase RhoA (RhoA): downregulates

From patent US20250042968A1, “EPHRIN LIGAND MIMETIC PEPTIDES FOR THE TREATMENT OF NEURODEGENERATIVE DISEASES” (University of Miami, priority 2022, published 2025)
